Source: patent US6046224A, “12 (S)--hete receptor blockers” (City of Hope, priority 1998, dated 2000)
Where “and” joins values, the source holds several entries; their conditions need not be identical. Equal entries are not always repeated. Entries after “also recorded” stand apart in the source; their conditions may differ. Structures can show the parent of a compound that is named as a salt. Where two headings read alike, the source gives them in different places.

Tests used:
[1] = test system: Human Aortic Endothelial Cells; experiment: Monocyte adhesion to human aortic endothelial cells, monocytes treated with 12(S)-HETE; assay type: cell-based; conditions: monocytes with 10^-9 M 12(S)-HETE, 12 minutes
Description: Neutrophil binding is not increased. […] See Example 10.
Monocytes were incubated with 10^-9 M 12(S)-HETE for 12 minutes at room temperature (RT) or 37° C. or left untreated at room temperature and assayed for monocytes adhesion. Eight fields were counted for each experiment.

[2] = test system: Human Aortic Endothelial Cells; experiment: Monocyte binding to human aortic endothelial cells, endothelial cells treated; assay type: cell-based
Text: Lipoxygenases (LO) are metabolic enzymes which catalyze the stereospecific oxygenation of polyunsaturated fatty acids to hydroperoxy fatty acids (Hamberg et al., J. Biol. Chem. 242:5329-5335 (1967)). The physiological function of 12-LO, the mammalian enzyme which catalyzes the oxygenation of arachidonic acid to (S)-12-hydroperoxyeicosatetraenoic acid (12-HPETE) and (S)-12-hydroxyeicosatetraenoic acid (12(S)-HETE), is unclear. 12-LO exists as two isoforms which are the products of different genes, leukocyte-type 12-LO and platelet-type 12-LO, which share 65% homology at the amino acid level (Izumi et al., Proc. Natl. Acad. Sci., USA 87:7477-7481 (1990); Funk et al., Proc. Natl. Acad. Sci. USA 87:5638-5642 (1990)). […] 12(S)-HETE has direct mitogenic and hypertrophic effects in vascular cells. […] In addition, glucose-induced monocyte adhesion was abrogated by the inhibition of 12-LO using both phenidone, a non-specific LO inhibitor, and baicalein, a more specific 12-LO inhibitor. The adhesion caused by 12-LO products appears to be monocyte-specific.

CHO-AT1a cells [3] = conditions: cited from earlier work; for inhibition of 12(S)-HETE-induced mitogenic effects (pertussis toxin): pretreatment of cells
[4] = test system: AII-induced proliferation; conditions: cited from earlier work
CHO-AT1a cells [5] = conditions: cited from earlier work
[6] = test system: c-jun amino terminal kinase (JNK); conditions: cited from earlier work
12-LO [7] = conditions: Scheidegger et al. 1997; cited from earlier work
12-LO [8] = conditions: cited from earlier work
PAK [9] = conditions: cited from earlier work
[10] = test system: 12(S)-HETE receptor (CHO-AT1a cells); experiment: [3H]12(S)-HETE binding to CHO-AT1a cells; parameters: species or system Chinese hamster; conditions: for blockade/displacement of [3H]12(S)-HETE binding: CHO-AT1a cells, 4° C.
Description: Kinetics of [^3 H]12(S)-HETE binding to CHO-AT1a cells. FIGS. 1 and 2 are a competition curves which examine the specificity of [^3 H]12(S)-HETE binding. CHO-AT1a cells were grown to confluence in 24 well tissue culture dishes in HAM's F12 medium containing 10% fetal calf serum. The cells were then rinsed and placed in fresh medium, HAM's F12/HEPES with no other additives (450 µl per well). Serial dilutions of unlabeled 12(S)-HETE or DuP654 were added to the wells. Commercial unlabeled 12(S)-HETE (BioMol Corp.) was dried and reconstituted in ethanol to obtain a stock solution of 5 mM. DuP654 was dissolved in DMSO to get a stock solution of 5 mM. These were then serially diluted and added in a volume of 1 u1 to the wells to obtain the final concentrations indicated. Then [^3 H]12(S)-HETE (10,000 cpm in a volume of 50 µl per well) was added from a stock solution obtained by adding the tracer to the medium. The plates were then incubated at 4° C. with continuous shaking for 2 hr. The cells were then washed 2 times with cold PBS and lysed in 0.3N NaOH (200 u1). Radioactivity in the cell lysates was quantitated in scintillation counter. Affinities and binding constants were obtained using […] computer software (Mlab, Civilized Software Inc., Bethesda, Md.).
Tritrated 12(S)-HETE binding is blocked by unlabeled 12(S)-HETE. DuP654, a 12(S)-HETE receptor antagonist, was shown also to block 12(S)-HETE at a concentration of 0.1 μM in both AT1a Σ and AT1a 27 cell types, two clones of CHO cells which overexpress the AII1a receptor. The cells were grown as described in Example 1.
Blockade of 12(S)-HETE binding by pertussis toxin. Cells were grown as described in Example 1. Prior to addition of drug (12(S)-HETE or DuP654) to the cells, the cultures were preincubated in HAM's F12 medium +0.1% BSA for two hours at 37° C. with or without 100 ng/ml pertussis toxin. Serial dilutions of unlabeled 12(S)-HETE or DuP654 were added, followed by [^3 H]12(S)-HETE as described for Example 1. After incubation and washing, radioactivity in the cell lysates was quantitated. As discussed above, pertussis toxin could also ablate 12(S)-HETE-induced mitogenic effects. This implicates the involvement of a Gi -protein-coupled receptor.

CHO-AT1a cells [11] = experiment: Growth/mitogenesis of CHO-AT1a cells; assay type: cell-based, Chinese hamster
Description: Partial blockade of 12(S)-HETE mitogensis by the specific angiotensin AT1a receptor antagonist, Losartan, in CHO-AT1a cells. (FIG. 5) CHO-AT1a cells were plated in 12-well dishes (about 5-10,000 cells per well) for 24 hr. in growth medium consisting of HAM's, F12+10% FCS. They were then serum depleted for 72 hours by replacing the medium with HAM's F12+0.1% BSA. This medium was then freshly replaced along with AII or 12-HETE (0.1 μM each) prior to addition of drug to the cells. Losartan was added as a solution in water to the cells 15 min. prior to the addition of AII or 12-HETE. Fresh medium containing the same concentrations of AII or 12(S)-HETE plus Losartan was replaced every 48 hours. At the end of 8 days, the medium was removed, and 1 ml trypsin was added per well followed by 1 ml isoton after 3 min. These trypsinized cells were counted on a Coulter counter. […] 12-HETE binding (FIG. 4).
The three cell lines, CHO-AT1a, CHO-AT1b and mock transfected CHO cells were gifts from Dr. Eric Clauser (Inserm Unit, Paris, France). These cells were plated in 12 well dishes in HAM's F12 medium +10% FCS. After 72 hours serum depletion in HAM's F12+0.05% FCS, the cells were treated with AII or 12(S)-HETE (0.1 μM). Cells counts (after trypsinization) were taken at 48 hour intervals and fresh medium along with AII or 12-HETE added at these 48 hour intervals.

[12] = test system: 12(S)-HETE receptors on the human epidermal cell line SCL-II; conditions: Arenberger et al. 1993; cited from earlier work
PAK [13] = experiment: PAK activity in CHO-AT1a cells; assay type: cell-based, Chinese hamster; conditions: 10^-7 M 12(S)-HETE, 10 minutes
Description: CHO-AT1a cells were gently washed and placed in depletion medium (HAM's F-12 medium containing 1 mg.backslash.ml BSA and 20 mM HEPES, ph 7.4) for 72 hours prior to use. After incubation for 30 minutes, the cells were treated with 10^-7 M 12(S)-HETE or with ethanol. The 12(S)-HETE treatment was terminated by washing twice with PBS and adding 300 μl lysis buffer (50 mM HEPES. pH 7.5, containing 150 mM NaCl, 5 mM MgCl2, 1 mM EGTA, 50 mM NaF, 10 mM sodium pyrophosphate, 1% NP-40, 2.5% glycerol and 1 mM Na3 VO4 containing the protease inhibitors phenylmethylsulfonyl fluoride, leupeptin, and aprotonin) followed by sedimentation at 14,000× g at 4° C. for ten minutes. Protein determination was performed by the Bradford method. […] PAK activity was measured as follows. […] ATP, the kinase activity was measured in 60 μl kinase buffer. […] Results are expressed as stimulation over control.
For the PBD-transfected group, CHO-AT1a cells were transiently transfected with 15 μg PBD plasmid. […] The bottom panel illustrates the densitometric quantification. […] Results are expressed as stimulation over control. The PAK activity was measured as described in Example 7.
Cells were pretreated with different concentrations of the PI-3 kinase inhibitor, LY294002 or DMSO (control) for 30 minutes, then treated with 10^-7 M 12(S)-HETE or ethanol (control) for 10 minutes. PAK activity was measured as described in Example 7.

[14] = HAEC incubated four hours with 12(S)-HETE, 240 min

For CCCCC/C=C\C[C@H](O)/C=C/C=C\C/C=C\CCCC(=O)O [12(S)-HETE, (S)-12-hydroxyeicosatetraenoic acid], the “Monocyte Adhesion to Human Aortic Endothelial Cells, 12(S)-HETE (37° C.)” value ([1]; 37° C., P = 0.01) was 39.0 ± 9.3, the “Monocyte Adhesion to Human Aortic Endothelial Cells, 12(S)-HETE (RT)” value ([1]; RT, exp. 1 P = 0.016, exp. 2 P = 0.001) was 39.6 ± 12.5 and 45.4 ± 7.6 and the “average increase in monocyte binding as compared to untreated cells” value [2, 14] was 3 fold. For the same compound, the “range of increase in monocyte binding as compared to untreated cells” value [2, 14] was 1.5-5 fold.
In the case of O=c1cc(-c2ccccc2)oc2cc(O)c(O)c(O)c12 [baicalein], the “inhibition of glucose-induced monocyte adhesion” value [2] is given as “abrogated”, the “inhibition of AII proliferative effects” value (CHO-AT1a cells [3]; AII-induced, CHO-AT1a cells) is given as “inhibited” and the “inhibition of proliferative effects of AII” value [4] is given as “inhibited”.
For “AII: growth factor and potent vasoconstrictor AII (DRVYIHPF; Angiotensin-2; UniProt P01019 25-32, looked up)”, the “increase in cell proliferation” value (CHO-AT1a cells [3]; CHO-AT1a cells, 0.1 µM) is listed as 2 fold and the “increase in 12(S)-HETE formation” value (CHO-AT1a cells [5]) is listed as 2 fold.
For “AII: growth factor and potent vasoconstrictor AII”, the “mitogenic effects in CHO-AT1a cells” value (CHO-AT1a cells [3]; Wen et al. 1996) is listed as “sustained increase in DNA synthesis as well as cell number”, the JNK activation ([6]; Wen et al. 1997) is listed as “activate” and the “stimulation of 12-LO activity in murine macrophages” value (12-LO [7]) is listed as “stimulate”. For the same compound, the “stimulation of 12-LO activity in smooth muscle cells” value (12-LO [8]) was “stimulate” and the “PAK activation by AII” value (PAK [9]) was “activate”.
In the case of CCCCc1nc(Cl)c(CO)n1Cc1ccc(-c2ccccc2-c2nn[nH]n2)cc1 [Losartan, 2-N-butyl-4-chloro-5-hydroxymethyl-1-[(2'-(1H-tetrazol-5-yl)biphenyl-4-yl)methyl]imidazole, potassium salt], the “blockade/displacement of [3H]12(S)-HETE binding” value (“blockade/displacement” for short) ([10]; potassium salt) is reported as “partially blocked”, the “inhibition of 12(S)-HETE-induced mitogenic effects” value (CHO-AT1a cells [11]; 12(S)-HETE-induced, CHO-AT1a cells, potassium salt) is reported as “partially blocked” and the “inhibition of AII-induced proliferative effects” value (CHO-AT1a cells [11]; AII-induced, CHO-AT1a cells, potassium salt) is reported as “fully inhibiting; also recorded: fully blocked”.
With Oc1c(Cc2ccccc2)ccc2ccccc12 [DuP654, 2-phenylmethyl-1-naphthol] the “blockade of 12(S)-HETE binding at 0.1 μM” value ([10]; 0.1 μM, AT1a Σ and AT1a 27 clones) was “block”, the “reduction of 12(S)-HETE-induced cell growth at 0.1 μM” value (CHO-AT1a cells [11]; 12(S)-HETE-induced, 0.1 μM) was “significantly reduced” and the “inhibition of 12(S)-HETE-induced mitogenic effects” value (CHO-AT1a cells [11]; 12(S)-HETE-induced, CHO-AT1a cells) was “completely inhibit; also recorded: Complete inhibition”. The “reduction of AII-induced cell growth at 0.1 μM” value (CHO-AT1a cells [11]; AII-induced, 0.1 μM) was “significantly reduced” and the “inhibition of 12(S)-HETE binding to SCL-II cells” value [12] was “specifically inhibit”.
For pertussis toxin, the “blockade/displacement” value [10] is given as “Blockade”, the “blockade/displacement” value ([10]; listed as Pertussis toxin) is given as “blocked” and the “inhibition of 12(S)-HETE-induced mitogenic effects (pertussis toxin)” value (CHO-AT1a cells [3]) is given as “completely abrogated; also recorded: ablate”. The “inhibition of 12(S)-HETE-induced mitogenic effects (pertussis toxin)” value (CHO-AT1a cells [3]; listed as Pertussis toxin) was “ablate” and the “blockade of JNK activation by 12(S)-HETE” value ([6]; 12(S)-HETE-induced) was “block”.
With O=c1cc(N2CCOCC2)oc2c(-c3ccccc3)cccc12 [LY294002] the “inhibition of 12(S)-HETE-induced PAK activation” value (PAK [13]) was “inhibition”.
For O=C1CCN(c2ccccc2)N1 [phenidone], the “inhibition of glucose-induced monocyte adhesion” value [2] was “abrogated”.
